In patent US7718764B2, “Biologically active peptide [sequence] derivatives” (CMS Peptides Patent Holding Company Limited, priority 2004, dated 2010):

Tests used:
mice T-lymphocyte [1] = experiment: Mice T-lymphocyte transformation induced by ConA in vitro (spleen cells, MTT); assay type: cell-based, BALB/c mice; conditions: for OD: Table 2, ConA 5 μg/ml, 68 hrs
Description: The spleens from healthy mice were isolated aseptically and manually dispersed in 10% FBS RPMI-1640 solution using an injection needle. The dispersed cell suspension was further sieved through a 100-gauge 150 μm diameter stainless steel sieve. The spleen cell suspension was adjusted to a density of 4×10^6/ml and was aliquoted onto 96-well cell culture plates at 100 μl/well. Peptides were dissolved in plain RPMI-1640. The design of the groupings was as given below.
Peptide group: 100 μl working peptide solution+75 μl spleen cell suspension+25 μl ConA working solution.
ConA control group: 100 μl RPMI-1640+75 μl spleen cell suspension+25 μl ConA working solution.
Negative control group: 125 μl RPMI-1640+75 μl spleen cell suspension.
The final concentration of ConA in the well was 5 μg/ml. The final concentrations of peptides in the well were 80 μg/ml, 16 μg/ml, 3.2 μg/ml, 0.64 μg/ml, and 0.128 μg/ml. Each peptide group contained three parallel wells, and eight or twelve wells for the control groups. The cells were incubated for 68 hrs at 37° C., 5% CO2. MTT method was used to obtain a reading of OD570 nm of each well referenced at 630 nm on an ELISA reader.

mice T-lymphocyte [2] = experiment: Mice T-lymphocyte transformation in vivo (i.p. dosing 20 days, spleen cells + ConA, MTT, stimulation index); design: species or system BALB/c mice
Description: Animals were randomized into two peptide groups (200 μg/kg/day and 50 μg/kg/day), Cyclosporine A group (10 mg/kg/day), and saline group (0.5 ml/day). Each group contained 10 mice, in which half were female and half were male. All test substances were dissolved in 0.5 ml saline and administered intraperitoneally once per day for 20 days. T-lymphocyte transformation and NK cell activity were examined on the day immediately following the last injection. The day after the last test substance administration, the mice were sacrificed by cervical dislocation. The spleens were isolated aseptically and manually dispersed in 10% FBS RPMI-1640 solution using an injection needle. The dispersed cell suspension was further sieved through a 100 gauge 150 μm diameter stainless steel sieve and adjusted to 4×10^6/ml. The cell suspensions were inoculated onto a 96 wells cell culture plate, 100 μl/well with the following design. Assay wells: 100 μl cell suspension+100 μl ConA Control wells: 100 μl cell suspension+100 μl RPMI-1640 Four assay and four control wells were set up for each animal. The plates were incubated at 37° C., 5% CO2 for 68 hours. MTT was then added and the plates read at OD 570 nm referenced at 630 nm with ELISA reader. Stimulation Index SI (%)=(assay well OD/control well OD)×100%.

mice NK cell = experiment: Mice NK cell activity in vivo (i.p. dosing 20 days, spleen effector cells vs YAC-1 target cells, MTT); design: species or system BALB/c mice; conditions: for NK cell activity (%): Table 8, saline 76.0 ± 4.3
Description: Animals were randomized into two peptide groups (200 μg/kg/day and 50 μg/kg/day), Cyclosporine A group (10 mg/kg/day), and saline group (0.5 ml/day). Each group contained 10 mice, in which half were female and half were male. All test substances were dissolved in 0.5 ml saline and administered intraperitoneally once per day for 20 days. T-lymphocyte transformation and NK cell activity were examined on the day immediately following the last injection. YAC-1 target cells were brought to log phase and adjusted to a density of 1×10^5/ml. Mice spleen cells prepared in section 2.2.2 above were adjusted to a density of 4×10^6/ml and used as effector cells. The cell suspensions were inoculated onto 96 wells cell culture plates as follows: Effector cell wells: 100 μl spleen cell suspension+100 μl RPMI-1640 Assay wells: 100 μl spleen cell suspension+100 μl YAC-1 cell suspension Target cell wells: 100 μl YAC-1 cell suspension+100 μl RPMI-1640 Three assay wells and three effector cell wells were set up for each animal, and 12 target cell wells were set up per cell culture plate. The plates were incubated at 37° C., 5% CO2 for 4 hours, then MTT was added and the plates were read at OD 570 nm referenced at 630 nm with ELISA reader. NK cell activity (%)=1−[(assay wells OD−effector cell wells OD)/target cell wells OD]×100%

mice antibody formation = experiment: Mice antibody formation in vivo (SRBC immunisation, serum haemolysis HC50); design: species or system BALB/c mice
Description: The mice were randomized into three groups: peptide (200 μg/kg/day), Cyclosporine A (10 mg/kg/day), and saline (0.5 ml). Each group contained 12 mice, 6 female and 6 male. The test substances were dissolved in 0.5 ml saline and applied intraperitoneally once per day for 20 consecutive days.
Sheep red blood cells (SRBC) were resuspended with saline to 2% (v/v) and 0.2 ml of the resuspended cell solution was applied intraperitoneally to each mouse on day 16th of the test substance administration. On the day after the last test substance administration, blood was collected from the inner canthus and left at room temperature for one hour for serum exudation. After centrifugation at 200 g for 10 minutes, the serum was diluted by 200 times with normal saline.
For the preparation of the complement working solution, 10 volumes of fresh Cavy serum was added into one volume of centrifuge-packed SRBC. […]
For assay of the mice antibody titer, 0.2 ml of 1% SRBC suspension was added to 1 ml diluted ice-cold mouse serum from each mouse. […] To 1 ml of this supernatant, 3 ml Drabkin solution was added and left at room temperature for 10 minutes, and then the OD540nm was measured. The reference lysis-50 reading at OD540nm was determined by following the exact procedure as the sample, except replacing half of the SRBC with saline and without the centrifugation removal of the unlysed SRBC. […]

Masugi nephritis rabbits = experiment: Masugi nephritis in rabbits: urine protein; assay type: in vivo; conditions: for proteinuria Week 0: saline treatment 11.72 ± 3.18; for proteinuria Week 1: saline treatment 122 ± 91; for proteinuria Week 2: saline treatment 160 ± 138; for proteinuria Week 3: saline treatment 145 ± 33; for proteinuria Week 4: saline treatment 157 ± 71
Description: Twenty-two healthy rabbits were randomized into 5 groups: peptide (107.3 μg/kg/day and 58.5 μg/kg/day, 4 rabbits per group), dexamethasone (0.1 mg/kg/day, 4 rabbits), saline treatment (1 ml/day, 7 rabbits), and normal healthy (3 rabbits). Before the establishment of a disease state in the rabbits, measurements of serum BUN, creatinine, and urine protein over 24 hours were taken for each rabbit. If there was no abnormality in these measurements, the Masugi nephritis model was established in experimental rabbits by intravenous injection of sheep anti-rabbit renal cortex antiserum via the auricular vein, 0.5 ml per injection, one injection every 30 minutes, for a total of 4 injections per rabbit. The normal healthy (control) rabbit group was injected with saline in the same manner. Intravenous administration of the test substances via the auricular vein was started on the day after the injection of the antiserum, once per day, 1 ml per injection, for 30 consecutive days.
Urine was collected from each rabbit over a 24 hour period once per week and the protein content determined by the sulfosalicylic acid method.
Statistical significance was determined by the t-test of the SPSS software.

[3] = at suitable dosage, vs saline control P<0.05

Substance: PLNPK [CMS-010.26]
- OD (mice T-lymphocyte [1]; peptide 0.128 μg/ml, ConA control 0.467 ± 0.043): 0.354 ± 0.017
- OD (mice T-lymphocyte [1]; peptide 0.64 μg/ml, ConA control 0.467 ± 0.043): 0.348 ± 0.025
- OD (mice T-lymphocyte [1]; peptide 3.2 μg/ml, ConA control 0.467 ± 0.043): 0.332 ± 0.015
- OD (mice T-lymphocyte [1]; peptide 16 μg/ml, ConA control 0.467 ± 0.043): 0.356 ± 0.006
- OD (mice T-lymphocyte [1]; peptide 80 μg/ml, MTT OD570 nm ref 630 nm, ConA control 0.467 ± 0.043, negative control 0.134 ± 0.011): 0.353 ± 0.016
- Effect on mice T-lymphocyte transformation induced by ConA in vitro (mice T-lymphocyte [1]; at suitable concentrations, vs ConA positive control P<0.05): suppress
- SI (mice T-lymphocyte [2]; Table 4, 200 μg/kg/day i.p. 20 days, saline 3.63 ± 0.69): 2.19 ± 0.59
- Effect on mice T-lymphocyte transformation in vivo (mice T-lymphocyte [2]; at suitable dosages, vs saline control P<0.05): suppress
- NK cell activity (%) (mice NK cell; 50 μg/kg/day i.p. 20 days): 68.5 ± 7.2 %
- NK cell activity (%) (mice NK cell; 200 μg/kg/day i.p. 20 days): 67.7 ± 5.3 %
- Effect on mice NK cell activity in vivo (suppression) (mice NK cell; [3]): suppress
- HC50 (mice antibody formation; 200 μg/kg/day i.p. 20 days, SRBC day 16, saline 167.6 ± 21.5): 141.3 ± 29.3
- Effect on mice antibody formation in vivo (mice antibody formation; [3]): suppress
- proteinuria Week 0 (Masugi nephritis rabbits; 58.5 μg/kg/day i.v.): 9.53 ± 4.64 mg/dL
- proteinuria Week 1 (Masugi nephritis rabbits; 58.5 μg/kg/day i.v.): 77 ± 62 mg/dL
- proteinuria Week 2 (Masugi nephritis rabbits; 58.5 μg/kg/day i.v.): 150 ± 123 mg/dL
- proteinuria Week 3 (Masugi nephritis rabbits; 58.5 μg/kg/day i.v.): 20 ± 12 mg/dL
- proteinuria Week 4 (Masugi nephritis rabbits; 58.5 μg/kg/day i.v.): 36 ± 16 mg/dL
- proteinuria Week 0 (Masugi nephritis rabbits; 107.3 μg/kg/day i.v.): 9.84 ± 4.29 mg/dL
- proteinuria Week 1 (Masugi nephritis rabbits; 107.3 μg/kg/day i.v.): 187 ± 184 mg/dL
- proteinuria Week 2 (Masugi nephritis rabbits; 107.3 μg/kg/day i.v.): 114 ± 145 mg/dL
- proteinuria Week 3 (Masugi nephritis rabbits; 107.3 μg/kg/day i.v.): 26 ± 24 mg/dL
- proteinuria Week 4 (Masugi nephritis rabbits; 107.3 μg/kg/day i.v.): 28 ± 32 mg/dL
- Effect on severity of proteinuria in Masugi nephritis rabbits (Masugi nephritis rabbits; vs saline treatment control P<0.05): decrease
